From US12435010B1, “4-iodopyrazole coordination compound and preparation method and use thereof” (Institute of Applied Ecology, Chinese Academy of Sciences, priority 2024, dated 2025) come the findings set out here.

Each structure is given as a SMILES string.

One assay has as its system nitrobacteria. Kind of assay: nitrification inhibition activity in air-dry soil with urea. The conditions noted are these: for Nitrification inhibition rate dN / Mass fraction of nitrate nitrogen in the sample solution ω1: 10.00 g air-dry soil, 0.10 g urea, 48 h; for Mass fraction of nitrate nitrogen in the sample solution ω1: control ω2=948.6. How it is done:
2. A method for determining nitrification inhibition activity is as follows. […] 4-iodopyrazole coordination compound prepared in Embodiment 1 were respectively weighed, and placed into 500 ml conical flasks respectively; 10.00 g of air-dry soil, 0.10 g of urea and 100 mL of phosphate buffer were added to each flask; the conical flasks were simultaneously place into a thermostatic culture oscillator (180 rpm) for oscillation for 48 h, and then the resulting solutions were filtered to determine mass fraction ω1 of nitrate nitrogen (including nitrite nitrogen) in the sample and the control sample solution respectively. Calculation of nitrification inhibition rate: the nitrification inhibition rate of binuclear ligands with different addition amounts was calculated, and the results are shown in Table 2. [formula] • where dN is nitrification inhibition rate (%); • ω1 is mass fraction of nitrate nitrogen (including nitrite nitrogen) in the sample; and • ω2 is mass fraction of nitrate nitrogen (including nitrite nitrogen) in the control sample, and ω2=948.6.

Another assay has as its target urease (Canavalia ensiformis, UniProt P07374). Conditions: read-out: IC50 of urease inhibition; urease 10 KU/L, preincubated 1 h at 37° C., phosphate buffer pH 6.8 with 500 mM urea; modified Karber method.

urease, sequence (P07374 whole entry, looked up): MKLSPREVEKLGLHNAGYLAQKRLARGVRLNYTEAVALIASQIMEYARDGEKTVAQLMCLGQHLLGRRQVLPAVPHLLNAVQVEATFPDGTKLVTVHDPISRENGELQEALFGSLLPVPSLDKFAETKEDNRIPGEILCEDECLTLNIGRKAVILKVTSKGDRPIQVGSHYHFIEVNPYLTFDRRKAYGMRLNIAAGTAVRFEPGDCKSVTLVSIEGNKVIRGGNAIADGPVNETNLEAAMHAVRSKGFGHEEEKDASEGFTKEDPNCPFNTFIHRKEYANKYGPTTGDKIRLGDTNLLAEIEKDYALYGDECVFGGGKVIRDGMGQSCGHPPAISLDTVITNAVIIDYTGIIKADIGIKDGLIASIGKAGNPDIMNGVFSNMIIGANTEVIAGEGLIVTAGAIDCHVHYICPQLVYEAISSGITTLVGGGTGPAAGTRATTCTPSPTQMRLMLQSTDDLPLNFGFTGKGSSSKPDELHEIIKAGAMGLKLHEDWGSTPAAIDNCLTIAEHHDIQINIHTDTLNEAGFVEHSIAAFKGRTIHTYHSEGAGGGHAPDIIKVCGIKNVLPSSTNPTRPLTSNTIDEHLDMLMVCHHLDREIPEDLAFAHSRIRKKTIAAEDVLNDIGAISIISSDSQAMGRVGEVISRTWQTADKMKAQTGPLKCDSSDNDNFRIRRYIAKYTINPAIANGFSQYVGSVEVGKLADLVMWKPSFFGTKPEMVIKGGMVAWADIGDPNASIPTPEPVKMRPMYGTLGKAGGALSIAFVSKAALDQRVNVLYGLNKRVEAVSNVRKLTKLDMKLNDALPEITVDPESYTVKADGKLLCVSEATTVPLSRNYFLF
Method for urease: An endpoint of the testing was determined by the phenol red indicator, and the testing was stopped when the solution changed from pale yellow to red.

Turning to `Ic1cn[nH]c1.Ic1cn[nH]c1.[Cl][Cu][Cl]` [copper chloride-linked 4-iodopyrazole coordination compound], the nitrification inhibition rates result in the assay on nitrobacteria (all addition amounts of Table 2) is recorded as “greater than 9%”. Also, the “Nitrification inhibition rate dN” value with nitrobacteria (mass of compound 0.03 g) turned out to be 9.16%; with nitrobacteria (mass of compound 0.05 g) it was 9.79%; in the assay with nitrobacteria (mass of compound 0.07 g), 11.09%; in the assay with nitrobacteria (mass of compound 0.10 g) it was 15.57%. The “Mass fraction of nitrate nitrogen in the sample solution ω1” value worked out at 861.7 in the assay with nitrobacteria (mass of compound 0.03 g), 855.8 in the assay on nitrobacteria (mass of compound 0.05 g), 843.4 in the assay with nitrobacteria (mass of compound 0.07 g) and 800.9 with nitrobacteria (mass of compound 0.10 g). Besides, on urease, the IC50 was 2.58 ± 0.04 µM.

Usually IC50 stands for the concentration that gives 50% inhibition.
